Reference: patent US20260200920A1, “SUBSTITUTED AMINOPYRIDINE COMPOUNDS FOR USE AS AKT1 INHIBITORS” (Atavistik Bio, Inc., priority 2023, published 2026)

Columns and labels:
[1] = biological target: T1, human recombinant kinase full-length wildtype AKT1 (Homo sapiens, UniProt P31749); test: AKT1 kinase assay (wildtype, TR-FRET, Lance); assay type: biochemical; conditions: 0.6 nM wildtype AKT1, 50 nM Ulight-CREBtide, either 50 μM ATP or 2 mM ATP, 60 min at RT
T1 construct: Purified human recombinant kinase full-length wildtype AKT1 was expressed in insect cells; made in house; host or cells: insect cells
T1 sequence (P31749 whole entry): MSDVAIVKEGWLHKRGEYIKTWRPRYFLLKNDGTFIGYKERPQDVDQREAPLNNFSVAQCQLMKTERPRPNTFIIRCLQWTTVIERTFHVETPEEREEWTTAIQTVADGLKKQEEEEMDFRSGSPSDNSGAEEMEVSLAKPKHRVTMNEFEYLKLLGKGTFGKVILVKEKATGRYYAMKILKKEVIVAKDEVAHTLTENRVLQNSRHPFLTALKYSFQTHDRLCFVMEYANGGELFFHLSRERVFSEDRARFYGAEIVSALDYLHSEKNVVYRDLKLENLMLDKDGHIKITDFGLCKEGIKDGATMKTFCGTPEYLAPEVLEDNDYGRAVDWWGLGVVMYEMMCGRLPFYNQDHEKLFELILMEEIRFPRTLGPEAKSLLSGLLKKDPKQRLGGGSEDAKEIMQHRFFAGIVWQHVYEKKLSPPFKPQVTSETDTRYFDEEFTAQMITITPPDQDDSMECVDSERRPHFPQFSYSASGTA
Method: AKT1 kinase assay: Inhibitory effects of compounds on wildtype AKT1 were undertaken in a 10-pt dose response kinase activity assay measuring phospho-peptide product formation based on TR-FRET signal as described in the following paragraph.
(§1) Purified human recombinant kinase full-length wildtype AKT1 was expressed in insect cells and activated in vitro by PDPK1. Ulight™-CREBtide (PerkinElmer, catalog number TRF0107) was used as the peptide substrate. The reaction buffer consisted of 50 mM HEPES pH 7.5, 10 mM MgCl2, 0.01% Triton X-100, 0.01% BSA, 2 mM DTT, 0.6 nM AKT1,50 nM Ulight™-CREBtide and either 50 μM ATP or 2 mM ATP. The compound solution was prepared as 10 mM DMSO stock. For the assay, a 1:3 serial dilution 10-pt dose response of test compounds, in duplicate, for each concentration were dispensed into a 384-well plate (Corning, catalog number 4513). Final DMSO concentration in the assay was 1%. The enzyme mixture (5 μL, 1.2 nM) were added and the mixture was incubated for 15 min at RT prior to the start of the kinase reaction by the addition of 5 μL substrate mixture (100 nM Ulight™-CREBtide). The reaction was stopped after 60 min of incubation at RT by the addition of 10 μL of Detection Mix (PerkinElmer, #CR97-100) consisting of Europium-anti-phospho-CREB (Ser133) (Perkin Elmer, catalog number TRF0200). Incubation with the detection mix for a further 60 min allowed binding of antibody to the phospho-Ulight™ CREBtide. The fluorescence emissions at 620 nm and 665 nm after excitation at 350 nm was measured using Envision reader. The ratio of the emissions at 665 nm and at 620 nm provided the measure for the amount of phosphorylated CREBtide product of AKT1 kinase activity. To determine the IC50 values, the data was normalized (enzyme reaction without inhibitor=0% inhibition, all other assay components but no enzyme=100% inhibition) and IC50 values were calculated by a 4-parameter fit using an in-house developed protocol.
The symbol +++ represents an IC50 value <20 μM; the symbol ++ represents an IC50 value from ≥20 μM to 80 μM.

[2] = biological target: T2, human recombinant kinase full-length AKT1 E17K (Homo sapiens, UniProt P31749, E17K); test: AKT1 E17K kinase assay (TR-FRET, Lance); assay type: biochemical; conditions: 0.6 nM AKT1 E17K, 50 nM Ulight-CREBtide, either 50 μM ATP or 2 mM ATP, 60 min at RT
T2 construct: Purified human recombinant kinase full-length AKT1 E17K was expressed in insect cells; made in house; host or cells: insect cells
T2 sequence (P31749 whole entry E17K): as the sequence (P31749 whole entry) above, with E17K counted along it
Method: AKT1 E17K kinase assay: Inhibitory effects of compounds on AKT1 E17K were undertaken in a 10-pt dose response kinase activity assay measuring phospho-peptide product formation based on TR-FRET signal as described in the following paragraph.
as §1, with “full-length” for “full-length wildtype”, “AKT1 E17K” for “AKT1”, “AKT1 E17K, 50” for “AKT1,50”, “1.3” for “1:3”
Table 9 assigns each compound a code for potency in the AKT1 E 17K kinase assay: A, B, or C. According to the code, A represents an IC50 value <500 nM; B represents an IC50 value from ≥500 nM to <2000 nM; and C represents an IC50 value ≥2000 nM.

IC50 [1] [nM] | IC50 [2] [nM] | SMILES
< 20000 | 500 to 2000 | Nc1ncccc1-c1nc2ccc(-c3ccccc3)nc2n1-c1ccc(NC(=O)[C@H]2CC[C@H](C(=O)O)CC2)c(F)c1 [Compound I-6, (1r,4r)-4-((4-(2-(2-aminopyridin-3-yl)-5-phenyl-3H-imidazo[4,5-b]pyridin-3-yl)-2-fluorophenyl)carbamoyl)cyclohexane-1-carboxylic acid]
20000 to 80000 | ≥ 2000 | Nc1ncccc1-c1nc2ccc(-c3ccccc3)nc2n1-c1ccc(NC(=O)C23CC(C(=O)O)(C2)C3)nc1 [Compound I-7, 3-((5-(2-(2-aminopyridin-3-yl)-5-phenyl-3H-imidazo[4,5-b]pyridin-3-yl)pyridin-2-yl)carbamoyl)bicyclo[1.1.1]pentane-1-carboxylic acid]
< 20000 | 500 to 2000 | Nc1ncccc1-c1nc2ccc(-c3ccccc3)nc2n1-c1ccc(NC(=O)C2CCC(C(=O)O)C2)nc1 (stereo not drawn) [Compound I-8, 3-((5-(2-(2-aminopyridin-3-yl)-5-phenyl-3H-imidazo[4,5-b]pyridin-3-yl)pyridin-2-yl)carbamoyl)cyclopentane-1-carboxylic acid]
< 20000 | 500 to 2000 | Nc1ncccc1-c1nc2ccc(-c3ccccc3)nc2n1-c1ccc(NC(=O)C23CCC(C(=O)O)(C2)C3)nc1 [Compound I-9, 4-((5-(2-(2-aminopyridin-3-yl)-5-phenyl-3H-imidazo[4,5-b]pyridin-3-yl)pyridin-2-yl)carbamoyl)bicyclo[2.1.1]hexane-1-carboxylic acid]
< 20000 | < 500 | Nc1ncccc1-c1nc2ccc(-c3ccccc3)nc2n1-c1ccc(NC(=O)[C@H]2CC[C@H](C(=O)O)CC2)nc1 [Compound I-10, (1r,4r)-4-((5-(2-(2-aminopyridin-3-yl)-5-phenyl-3H-imidazo[4,5-b]pyridin-3-yl)pyridin-2-yl)carbamoyl)cyclohexane-1-carboxylic acid]
< 20000 | < 500 | Nc1ncccc1-c1nc2ccc(-c3ccccc3)nc2n1-c1ccc(NC(=O)C2CCCC(C(=O)O)C2)nc1 (stereo not drawn) [Compound I-11, 3-((5-(2-(2-aminopyridin-3-yl)-5-phenyl-3H-imidazo[4,5-b]pyridin-3-yl)pyridin-2-yl)carbamoyl)cyclohexane-1-carboxylic acid]
< 20000 | < 500 | Nc1ncccc1-c1nc2ccc(-c3ccccc3)nc2n1-c1ccc(NCC2CCC(C(=O)O)CC2)nc1 (stereo not drawn) [Compound I-12, 4-(((5-(2-(2-aminopyridin-3-yl)-5-phenyl-3H-imidazo[4,5-b]pyridin-3-yl)pyridin-2-yl)amino)methyl)cyclohexane-1-carboxylic acid]
< 20000 | ≥ 2000 | Nc1ncccc1-c1nc2ccc(-c3ccccc3)nc2n1-c1ccc(NC2CCC(C(=O)O)C2)nc1 (stereo not drawn) [Compound I-13, 3-((5-(2-(2-aminopyridin-3-yl)-5-phenyl-3H-imidazo[4,5-b]pyridin-3-yl)pyridin-2-yl)amino)cyclopentane-1-carboxylic acid]
< 20000 | < 500 | Nc1ncccc1-c1nc2ccc(-c3ccccc3)nc2n1-c1ccc(C(=O)N[C@H]2CC[C@H](C(=O)O)CC2)cc1 [Compound I-16, (1r,4r)-4-(4-(2-(2-aminopyridin-3-yl)-5-phenyl-3H-imidazo[4,5-b]pyridin-3-yl)benzamido)cyclohexane-1-carboxylic acid]
< 20000 | 500 to 2000 | Nc1ncccc1-c1nc2ccc(-c3ccccc3)nc2n1-c1ccc(C(=O)N[C@H]2CC[C@@H](C(=O)O)CC2)cc1 [Compound I-17, (1s,4s)-4-(4-(2-(2-aminopyridin-3-yl)-5-phenyl-3H-imidazo[4,5-b]pyridin-3-yl)benzamido)cyclohexane-1-carboxylic acid]
< 20000 | ≥ 2000 | Nc1ncccc1-c1nc2ccc(-c3ccccc3)nc2n1-c1ccc(C(=O)N[C@H]2CC[C@@H](C(=O)O)CC2)nc1 [Compound I-18, (1s,4s)-4-(5-(2-(2-aminopyridin-3-yl)-5-phenyl-3H-imidazo[4,5-b]pyridin-3-yl)picolinamido)cyclohexane-1-carboxylic acid]
< 20000 | ≥ 2000 | Nc1ncccc1-c1nc2ccc(-c3ccccc3)nc2n1-c1ccc(C(=O)N[C@H]2CC[C@H](C(=O)O)CC2)nc1 [Compound I-19, (1r,4r)-4-(5-(2-(2-aminopyridin-3-yl)-5-phenyl-3H-imidazo[4,5-b]pyridin-3-yl)picolinamido)cyclohexane-1-carboxylic acid]
< 20000 | ≥ 2000 | Nc1ncccc1-c1nc2ccc(-c3ccccc3)nc2n1-c1ccc(C(=O)N2CCC(C(=O)O)CC2)cc1 [Compound I-20, 1-(4-(2-(2-aminopyridin-3-yl)-5-phenyl-3H-imidazo[4,5-b]pyridin-3-yl)benzoyl)piperidine-4-carboxylic acid]
< 20000 | ≥ 2000 | Nc1ncccc1-c1nc2ccc(-c3ccccc3)nc2n1-c1ccc(C(=O)N2CCCC(C(=O)O)C2)cc1 (stereo not drawn) [Compound I-21, 1-(4-(2-(2-aminopyridin-3-yl)-5-phenyl-3H-imidazo[4,5-b]pyridin-3-yl)benzoyl)piperidine-3-carboxylic acid]
20000 to 80000 | ≥ 2000 | Nc1ncccc1-c1nc2ccc(-c3ccccc3)nc2n1-c1ccc(C(=O)N2CCC(C(=O)O)CC2)nc1 [Compound I-22, 1-(5-(2-(2-aminopyridin-3-yl)-5-phenyl-3H-imidazo[4,5-b]pyridin-3-yl)picolinoyl)piperidine-4-carboxylic acid]
20000 to 80000 | ≥ 2000 | CC1(C(=O)O)CCN(C(=O)c2ccc(-n3c(-c4cccnc4N)nc4ccc(-c5ccccc5)nc43)cn2)CC1 [Compound I-23, 1-(5-(2-(2-aminopyridin-3-yl)-5-phenyl-3H-imidazo[4,5-b]pyridin-3-yl)picolinoyl)-4-methylpiperidine-4-carboxylic acid]
< 20000 | ≥ 2000 | CC1(C)CN(C(=O)c2ccc(-n3c(-c4cccnc4N)nc4ccc(-c5ccccc5)nc43)cn2)CCC1C(=O)O (stereo not drawn) [Compound I-24, 1-(5-(2-(2-aminopyridin-3-yl)-5-phenyl-3H-imidazo[4,5-b]pyridin-3-yl)picolinoyl)-3,3-dimethylpiperidine-4-carboxylic acid]
< 20000 | 500 to 2000 | Nc1ncccc1-c1nc2ccc(-c3ccccc3)nc2n1-c1ccc(N2CCC(C(=O)O)C2)nc1 (stereo not drawn) [Compound I-25, 1-(5-(2-(2-aminopyridin-3-yl)-5-phenyl-3H-imidazo[4,5-b]pyridin-3-yl)pyridin-2-yl)pyrrolidine-3-carboxylic acid]
